Reference: ChEMBL document CHEMBL3217617 (Medchemcomm, 2012)

Experiments:
Insulin receptor = Insulin receptor (Homo sapiens, UniProt P06213); test: Inhibition of recombinant InsR (unknown origin) using poly-Glu-Tyr peptide as substrate
Histone deacetylase 3 [1] = biological target: T1, Histone deacetylase 3 (Homo sapiens, UniProt O15379); test: Inhibition of human recombinant HDAC3 expressed in Sf21 insect cells using Ac-NH-GGK(Ac)-AMC as substrate after 180 mins by fluorescence assay relative to control
[2] = biological target: Platelet-derived growth factor receptor beta (Homo sapiens, UniProt P09619); test: Inhibition of recombinant PDGFRbeta (unknown origin) using poly-Glu-Tyr peptide as substrate
Sequence of Platelet-derived growth factor receptor beta (P09619 whole entry): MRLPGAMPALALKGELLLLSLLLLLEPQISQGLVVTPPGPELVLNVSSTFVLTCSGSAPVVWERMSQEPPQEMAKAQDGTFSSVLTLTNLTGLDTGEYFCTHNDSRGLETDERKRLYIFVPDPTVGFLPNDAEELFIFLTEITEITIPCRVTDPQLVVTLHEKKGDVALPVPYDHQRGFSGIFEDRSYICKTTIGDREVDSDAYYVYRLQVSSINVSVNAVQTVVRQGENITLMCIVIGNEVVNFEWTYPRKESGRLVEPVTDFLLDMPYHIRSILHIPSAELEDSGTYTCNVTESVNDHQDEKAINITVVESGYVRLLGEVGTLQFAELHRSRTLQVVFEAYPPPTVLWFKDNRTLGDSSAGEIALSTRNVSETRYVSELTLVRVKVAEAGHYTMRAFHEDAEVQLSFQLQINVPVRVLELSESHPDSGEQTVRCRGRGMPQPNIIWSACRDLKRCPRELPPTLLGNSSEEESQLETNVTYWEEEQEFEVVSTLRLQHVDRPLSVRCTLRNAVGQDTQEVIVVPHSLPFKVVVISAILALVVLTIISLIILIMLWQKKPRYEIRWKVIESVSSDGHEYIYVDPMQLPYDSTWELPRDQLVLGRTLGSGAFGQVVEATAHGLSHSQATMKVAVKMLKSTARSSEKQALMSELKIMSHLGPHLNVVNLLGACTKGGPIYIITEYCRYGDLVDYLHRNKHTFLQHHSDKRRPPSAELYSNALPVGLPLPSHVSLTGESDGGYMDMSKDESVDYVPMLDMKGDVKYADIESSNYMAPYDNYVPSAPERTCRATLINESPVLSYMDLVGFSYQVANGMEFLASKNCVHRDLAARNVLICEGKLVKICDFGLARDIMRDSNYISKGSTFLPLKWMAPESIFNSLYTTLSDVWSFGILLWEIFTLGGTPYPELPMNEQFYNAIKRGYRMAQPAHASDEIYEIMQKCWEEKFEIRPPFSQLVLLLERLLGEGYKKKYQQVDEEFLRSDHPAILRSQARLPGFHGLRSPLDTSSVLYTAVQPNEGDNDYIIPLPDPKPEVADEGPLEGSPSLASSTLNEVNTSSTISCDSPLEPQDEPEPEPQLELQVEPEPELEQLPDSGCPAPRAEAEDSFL

[3] = biological target: Cyclin-dependent kinase 2 (Homo sapiens, UniProt P24941); test: Inhibition of recombinant CDK2 (unknown origin) using poly-Glu-Tyr peptide as substrate
HeLa = test: Cytotoxicity against human HeLa cells by Alamar Blue assay; type: functional, cell-based
[4] = Inhibition of recombinant PKA (unknown origin) using poly-Glu-Tyr peptide as substrate; set-up: species or system Homo sapiens
[5] = biological target: T2, Protein deacetylase HDAC6 (Homo sapiens, UniProt Q9UBN7); test: Inhibition of human recombinant HDAC6 expressed in human HEK293 cells using Ac-NH-GGK(Ac)-AMC as substrate after 180 mins by fluorescence assay
T2 sequence (Q9UBN7 whole entry): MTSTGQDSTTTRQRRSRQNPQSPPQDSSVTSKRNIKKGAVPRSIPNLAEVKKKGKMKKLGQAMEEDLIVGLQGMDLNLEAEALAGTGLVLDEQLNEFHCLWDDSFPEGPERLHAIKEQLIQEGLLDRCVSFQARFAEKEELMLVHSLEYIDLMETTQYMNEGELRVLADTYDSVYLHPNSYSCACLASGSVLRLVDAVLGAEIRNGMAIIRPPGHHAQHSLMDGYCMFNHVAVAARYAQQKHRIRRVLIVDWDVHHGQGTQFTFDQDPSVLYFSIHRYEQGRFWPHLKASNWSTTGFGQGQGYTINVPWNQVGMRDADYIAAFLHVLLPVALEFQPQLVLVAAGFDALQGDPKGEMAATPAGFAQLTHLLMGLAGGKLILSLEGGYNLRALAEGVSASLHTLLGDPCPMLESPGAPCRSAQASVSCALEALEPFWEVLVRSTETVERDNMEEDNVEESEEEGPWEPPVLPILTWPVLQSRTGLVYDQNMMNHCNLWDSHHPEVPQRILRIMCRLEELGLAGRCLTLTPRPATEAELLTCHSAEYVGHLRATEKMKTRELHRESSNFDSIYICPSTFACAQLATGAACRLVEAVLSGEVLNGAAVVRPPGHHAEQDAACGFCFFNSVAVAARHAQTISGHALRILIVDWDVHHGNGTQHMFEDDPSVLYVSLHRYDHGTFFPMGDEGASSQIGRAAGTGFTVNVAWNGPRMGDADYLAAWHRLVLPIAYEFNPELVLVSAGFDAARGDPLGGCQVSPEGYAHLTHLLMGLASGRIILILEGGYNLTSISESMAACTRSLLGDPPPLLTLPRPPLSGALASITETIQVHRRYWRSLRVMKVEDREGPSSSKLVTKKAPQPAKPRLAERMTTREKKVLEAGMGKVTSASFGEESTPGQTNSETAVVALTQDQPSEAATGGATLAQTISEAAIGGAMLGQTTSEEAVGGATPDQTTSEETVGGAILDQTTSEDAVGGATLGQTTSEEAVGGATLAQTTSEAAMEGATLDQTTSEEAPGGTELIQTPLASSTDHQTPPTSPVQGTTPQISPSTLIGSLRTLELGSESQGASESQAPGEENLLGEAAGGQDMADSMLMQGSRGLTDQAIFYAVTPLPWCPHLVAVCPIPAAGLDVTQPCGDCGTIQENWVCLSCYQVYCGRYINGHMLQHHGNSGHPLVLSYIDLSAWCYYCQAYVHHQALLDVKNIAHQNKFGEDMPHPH

[6] = biological target: Epidermal growth factor receptor (Homo sapiens, UniProt P00533); test: Inhibition of recombinant EGFR (unknown origin) using poly-Glu-Tyr peptide as substrate
Histone deacetylase [7] = test: Inhibition of HDAC in human HeLa cells using Boc-K(Ac)-AMC as substrate preincubated for 4 hrs before substrate addition measured after 3 hrs by fluorescence assay; type: cell-based
Histone deacetylase 1 [8] = biological target: T3, Histone deacetylase 1 (Homo sapiens, UniProt Q13547); test: Inhibition of human recombinant HDAC1 expressed in human HEK293 cells using Ac-NH-GGK(Ac)-AMC as substrate after 180 mins by fluorescence assay
T3 sequence (Q13547 whole entry): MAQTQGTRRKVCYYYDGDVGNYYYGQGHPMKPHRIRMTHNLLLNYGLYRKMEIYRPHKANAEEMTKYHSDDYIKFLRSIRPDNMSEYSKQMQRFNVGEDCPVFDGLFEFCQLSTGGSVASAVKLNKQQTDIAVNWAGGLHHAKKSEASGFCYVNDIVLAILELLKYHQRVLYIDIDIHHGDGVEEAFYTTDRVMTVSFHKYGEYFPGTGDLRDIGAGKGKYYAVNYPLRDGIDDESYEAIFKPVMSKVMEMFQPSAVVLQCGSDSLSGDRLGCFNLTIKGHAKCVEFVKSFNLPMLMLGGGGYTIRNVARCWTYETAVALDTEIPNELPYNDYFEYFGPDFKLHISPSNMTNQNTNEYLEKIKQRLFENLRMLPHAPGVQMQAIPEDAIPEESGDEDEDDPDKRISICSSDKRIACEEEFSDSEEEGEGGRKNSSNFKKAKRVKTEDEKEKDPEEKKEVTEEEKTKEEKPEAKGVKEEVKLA

Histone deacetylase 3 [9] = biological target: T1, Histone deacetylase 3; test: Inhibition of human recombinant HDAC3 expressed in Sf21 insect cells using Ac-NH-GGK(Ac)-AMC as substrate after 180 mins by fluorescence assay
A-431 = test: Cytotoxicity against human A431 cells by Alamar Blue assay; type: functional, cell-based
[10] = Cytotoxicity against human SKBR3 cells by Alamar Blue assay; type: functional, cell-based; details: SK-BR-3
SK-OV-3 = test: Cytotoxicity against human SKOV3 cells by Alamar Blue assay; type: functional, cell-based
Histone deacetylase 8 = biological target: T4, Histone deacetylase 8 (Homo sapiens, UniProt Q9BY41); test: Inhibition of human recombinant HDAC8 expressed in Sf21 insect cells using Ac-NH-GGK(Ac)-AMC as substrate after 180 mins by fluorescence assay
T4 sequence (Q9BY41 whole entry): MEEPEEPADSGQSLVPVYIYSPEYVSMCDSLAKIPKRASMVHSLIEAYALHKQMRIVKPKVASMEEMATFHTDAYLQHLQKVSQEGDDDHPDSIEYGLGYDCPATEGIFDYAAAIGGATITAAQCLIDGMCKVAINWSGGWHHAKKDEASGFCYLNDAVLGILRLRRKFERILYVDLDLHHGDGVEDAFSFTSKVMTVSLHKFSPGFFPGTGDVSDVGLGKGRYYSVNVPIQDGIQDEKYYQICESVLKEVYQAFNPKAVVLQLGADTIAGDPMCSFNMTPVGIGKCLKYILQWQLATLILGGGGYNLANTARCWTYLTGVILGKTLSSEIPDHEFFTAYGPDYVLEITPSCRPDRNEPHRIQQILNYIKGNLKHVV

[11] = biological target: Serine/threonine-protein kinase PLK1 (Homo sapiens, UniProt P53350); test: Inhibition of recombinant Plk1 (unknown origin) using poly-Glu-Tyr peptide as substrate
Sequence of Serine/threonine-protein kinase PLK1 (P53350 whole entry): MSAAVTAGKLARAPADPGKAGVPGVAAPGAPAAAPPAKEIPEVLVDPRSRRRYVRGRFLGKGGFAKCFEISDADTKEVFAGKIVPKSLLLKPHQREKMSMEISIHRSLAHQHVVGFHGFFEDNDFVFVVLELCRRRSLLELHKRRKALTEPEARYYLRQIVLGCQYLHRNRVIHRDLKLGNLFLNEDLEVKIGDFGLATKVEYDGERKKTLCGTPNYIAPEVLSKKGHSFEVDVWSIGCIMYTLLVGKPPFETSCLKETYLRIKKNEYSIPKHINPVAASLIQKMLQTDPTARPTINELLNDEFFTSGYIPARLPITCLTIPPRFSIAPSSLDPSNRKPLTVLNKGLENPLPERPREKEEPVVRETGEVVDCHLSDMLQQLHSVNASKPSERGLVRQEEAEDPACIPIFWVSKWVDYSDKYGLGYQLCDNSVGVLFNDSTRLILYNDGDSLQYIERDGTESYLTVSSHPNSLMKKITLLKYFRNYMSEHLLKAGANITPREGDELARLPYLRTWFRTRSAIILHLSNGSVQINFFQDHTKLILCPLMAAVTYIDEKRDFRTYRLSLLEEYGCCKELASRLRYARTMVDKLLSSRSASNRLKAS

Histone deacetylase [12] = test: Inhibition of HDAC in human HeLa cell nuclear extracts using Ac-NH-GGK(Ac)-AMC as substrate after 180 mins by fluorescence assay; type: protein assay
A549 = test: Cytotoxicity against human A549 cells by Alamar Blue assay; type: functional, cell-based
[13] = Cytotoxicity against human CAL27 cells by Alamar Blue assay; type: functional, cell-based; details: CAL-27
[14] = biological target: Receptor tyrosine-protein kinase erbB-2 (Homo sapiens, UniProt P04626); test: Inhibition of recombinant HER2 (unknown origin) using poly-Glu-Tyr peptide as substrate
[15] = biological target: Tyrosine-protein kinase ABL1 (Homo sapiens, UniProt P00519); test: Inhibition of recombinant Abl1 (unknown origin) using poly-Glu-Tyr peptide as substrate
Sequence of Tyrosine-protein kinase ABL1 (P00519 whole entry): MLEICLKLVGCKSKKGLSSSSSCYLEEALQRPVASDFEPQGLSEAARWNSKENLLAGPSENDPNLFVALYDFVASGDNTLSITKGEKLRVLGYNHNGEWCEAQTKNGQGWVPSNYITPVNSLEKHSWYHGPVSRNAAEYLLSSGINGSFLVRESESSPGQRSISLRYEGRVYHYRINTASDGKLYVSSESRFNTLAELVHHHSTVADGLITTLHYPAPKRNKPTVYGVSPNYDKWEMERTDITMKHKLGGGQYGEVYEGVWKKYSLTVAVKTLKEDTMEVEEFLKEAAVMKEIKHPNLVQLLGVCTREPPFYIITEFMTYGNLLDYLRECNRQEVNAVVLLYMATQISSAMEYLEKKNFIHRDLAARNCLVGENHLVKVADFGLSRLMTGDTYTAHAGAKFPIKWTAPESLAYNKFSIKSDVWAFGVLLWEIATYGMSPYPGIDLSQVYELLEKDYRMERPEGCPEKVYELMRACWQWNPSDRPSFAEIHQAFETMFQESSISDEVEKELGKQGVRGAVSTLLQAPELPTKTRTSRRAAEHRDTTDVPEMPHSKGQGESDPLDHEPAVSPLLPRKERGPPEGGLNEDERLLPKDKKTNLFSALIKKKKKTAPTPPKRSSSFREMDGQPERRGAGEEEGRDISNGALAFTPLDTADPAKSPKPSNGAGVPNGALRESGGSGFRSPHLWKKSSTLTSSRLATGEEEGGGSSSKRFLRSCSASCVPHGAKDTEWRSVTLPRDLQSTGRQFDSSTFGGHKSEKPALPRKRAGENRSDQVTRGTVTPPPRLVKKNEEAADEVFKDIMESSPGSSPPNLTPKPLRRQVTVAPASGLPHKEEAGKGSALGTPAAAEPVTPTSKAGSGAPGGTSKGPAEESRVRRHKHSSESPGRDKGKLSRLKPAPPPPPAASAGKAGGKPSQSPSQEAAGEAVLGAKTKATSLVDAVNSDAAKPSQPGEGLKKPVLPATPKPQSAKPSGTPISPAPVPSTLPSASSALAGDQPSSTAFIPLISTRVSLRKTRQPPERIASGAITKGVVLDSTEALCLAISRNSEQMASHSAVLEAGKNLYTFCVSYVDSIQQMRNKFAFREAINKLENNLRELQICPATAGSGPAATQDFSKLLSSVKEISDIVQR

[16] = biological target: T5, Histone deacetylase (Homo sapiens) (UniProt Q13547+O15379+Q9UBN7+Q92769+Q9UQL6+Q8WUI4+Q9BY41+Q96DB2+P56524+Q9UKV0+Q969S8); test: Inhibition of HDAC in human HeLa cell nuclear extracts using Ac-NH-GGK(Ac)-AMC as substrate after 180 mins by fluorescence assay relative to control; type: protein assay
[17] = biological target: T5, Histone deacetylase (Homo sapiens); test: Inhibition of HDAC in human HeLa cells using Boc-K(Ac)-AMC as substrate preincubated for 4 hrs before substrate addition measured after 3 hrs by fluorescence assay relative to control; type: cell-based
Histone deacetylase 1 [18] = biological target: T3, Histone deacetylase 1; test: Inhibition of human recombinant HDAC1 expressed in human HEK293 cells using Ac-NH-GGK(Ac)-AMC as substrate after 180 mins by fluorescence assay relative to control

Sequence of Insulin receptor (P06213 28-758 limits assumed): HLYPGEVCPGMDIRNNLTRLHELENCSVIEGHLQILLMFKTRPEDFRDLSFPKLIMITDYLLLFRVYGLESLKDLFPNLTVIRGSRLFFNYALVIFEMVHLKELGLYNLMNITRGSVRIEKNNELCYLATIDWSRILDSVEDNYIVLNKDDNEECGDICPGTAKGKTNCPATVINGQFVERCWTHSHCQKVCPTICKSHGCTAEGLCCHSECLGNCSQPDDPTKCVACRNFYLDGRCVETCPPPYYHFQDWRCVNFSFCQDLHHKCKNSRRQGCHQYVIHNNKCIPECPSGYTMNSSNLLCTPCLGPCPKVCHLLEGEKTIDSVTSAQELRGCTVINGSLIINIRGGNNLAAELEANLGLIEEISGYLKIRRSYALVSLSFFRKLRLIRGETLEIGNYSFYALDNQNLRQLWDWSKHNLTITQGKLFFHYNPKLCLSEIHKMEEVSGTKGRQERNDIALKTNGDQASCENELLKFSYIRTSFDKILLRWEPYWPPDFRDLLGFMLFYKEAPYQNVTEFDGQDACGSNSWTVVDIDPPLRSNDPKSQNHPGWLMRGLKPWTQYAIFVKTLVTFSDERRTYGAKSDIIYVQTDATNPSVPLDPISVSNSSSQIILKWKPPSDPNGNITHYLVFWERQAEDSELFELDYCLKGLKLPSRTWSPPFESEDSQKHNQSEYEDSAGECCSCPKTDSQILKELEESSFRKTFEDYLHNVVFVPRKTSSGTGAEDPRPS
Sequence of Insulin receptor (P06213 763-1382 limits assumed): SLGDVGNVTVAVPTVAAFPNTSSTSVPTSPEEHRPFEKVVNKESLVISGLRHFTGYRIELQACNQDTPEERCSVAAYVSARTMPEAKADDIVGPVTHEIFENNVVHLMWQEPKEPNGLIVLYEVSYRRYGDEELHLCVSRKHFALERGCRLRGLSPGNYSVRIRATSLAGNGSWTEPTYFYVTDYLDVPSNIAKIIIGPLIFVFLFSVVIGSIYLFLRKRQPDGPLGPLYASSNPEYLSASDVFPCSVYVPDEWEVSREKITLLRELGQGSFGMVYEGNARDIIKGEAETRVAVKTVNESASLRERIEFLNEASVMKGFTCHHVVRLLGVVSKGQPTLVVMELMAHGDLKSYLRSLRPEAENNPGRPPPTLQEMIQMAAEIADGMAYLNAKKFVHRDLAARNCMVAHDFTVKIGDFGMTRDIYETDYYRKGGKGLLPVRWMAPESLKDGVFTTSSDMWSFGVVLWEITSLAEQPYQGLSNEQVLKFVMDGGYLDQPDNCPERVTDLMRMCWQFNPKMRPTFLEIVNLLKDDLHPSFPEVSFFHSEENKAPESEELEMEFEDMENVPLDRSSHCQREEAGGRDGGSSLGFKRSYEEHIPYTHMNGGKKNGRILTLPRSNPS

Row | Structure (SMILES) | IC50 (Insulin receptor) [µM] | IC50 [2] [µM] | IC50 [3] [µM] | IC50 (HeLa) [µM] | IC50 [4] [µM] | IC50 [5] [µM] | IC50 [6] [µM] | IC50 (Histone deacetylase [7]) [µM] | IC50 (Histone deacetylase 1 [8]) [µM] | IC50 (Histone deacetylase 3 [9]) [µM] | IC50 (A-431) [µM] | IC50 [10] [µM] | IC50 (SK-OV-3) [µM] | IC50 (Histone deacetylase 8) [µM] | IC50 [11] [µM] | IC50 (Histone deacetylase [12]) [µM] | IC50 (A549) [µM] | IC50 [13] [µM] | IC50 [14] [µM] | Imax [16] [%] | other results
1 | Nc1ccccc1NC(=O)c1ccc(COc2ccc3ncnc(Nc4cccc(Br)c4)c3c2)cc1 | 150 | 28 | 22 | 1.45 | > 100 | > 32 | 0.033 | 2.46 | 0.074 | 0.51 | 1.7 | 5.1 | 6.3 | > 32 | > 100 | 0.25 | 1.3 | 0.62 | 0.039 | – | Imax (Histone deacetylase 3 [1]): 75%; IC50 [15]: 11 µM
2 | C#Cc1cccc(Nc2ncnc3ccc(S(=O)(=O)n4ccc(/C=C/C(=O)NO)c4)cc23)c1 | 65 | 70 | > 100 | 0.5 | > 100 | 0.0073 | 1.2 | 0.034 | 0.0065 | 0.015 | 0.26 | 0.19 | 0.56 | 0.59 | > 100 | 0.0064 | 0.24 | 0.16 | 3.4 | – | IC50 [15]: 27 µM
3 | C#Cc1cccc(Nc2ncnc3ccc(OCc4ccc(C(=O)Nc5ccccc5N)cc4)cc23)c1 | 36 | 7.2 | 13 | 1.35 | > 100 | > 32 | 0.078 | 1.85 | 0.041 | 0.55 | 1.6 | 3.4 | 5.1 | > 32 | > 100 | 0.2 | 0.9 | 0.61 | 0.066 | 50 | IC50 [15]: 7 µM
4 | C#Cc1cccc(Nc2ncnc3cc(NC(=O)c4ccc(C(=O)Nc5ccccc5N)nc4)ccc23)c1 | – | – | – | 1.5 | – | > 32 | – | > 5.01 | 5.6 | 0.32 | 0.79 | > 50 | > 50 | > 32 | – | 0.51 | 2.1 | 0.45 | – | 30 | –
5 | C#Cc1cccc(Nc2ncnc3ccc(NC(=O)c4ccc(C(=O)Nc5ccccc5N)s4)cc23)c1 | – | – | – | > 50 | – | > 32 | – | > 15.8 | 8.6 | 0.92 | > 16 | > 50 | > 50 | > 32 | – | > 32 | > 50 | 0.41 | – | – | –
6 | C#Cc1cccc(Nc2ncnc3cc(NC(=O)c4ccc(C(=O)Nc5ccccc5N)cc4)ccc23)c1 | – | – | – | 1.7 | – | > 32 | – | 0.78 | 0.8 | 0.5 | 1.6 | 39 | > 50 | > 32 | – | 0.2 | 1.4 | 0.46 | – | 30 | Imax [17]: 30%
7 | C#Cc1cccc(Nc2ncnc3cc(NC(=O)c4ccc(C(=O)Nc5ccccc5N)s4)ccc23)c1 | – | – | – | 1.8 | – | > 32 | – | > 5.01 | 2.2 | 0.77 | 0.96 | 33 | 30 | > 32 | – | 0.38 | 0.82 | 1.2 | – | 30 | Imax (Histone deacetylase 3 [1]): 70%; Imax (Histone deacetylase 1 [18]): 75%
8 | C#Cc1cccc(Nc2ncnc3ccc(NC(=O)c4ccc(C(=O)Nc5ccccc5N)cc4)cc23)c1 | – | – | – | > 50 | – | > 32 | – | > 15.8 | 10.5 | 0.61 | > 16 | > 50 | > 50 | > 32 | – | > 32 | > 50 | 0.33 | – | – | –
9 | C#Cc1cccc(Nc2ncnc3ccc(NC(=O)c4ccc(C(=O)Nc5ccccc5N)nc4)cc23)c1 | – | – | – | 21.5 | – | > 32 | – | > 15.8 | 0.31 | 0.44 | > 16 | 11 | 7.7 | > 32 | – | > 32 | 39 | 8 | – | – | Imax (Histone deacetylase 1 [18]): 70%
10 | C#Cc1cccc(Nc2ncnc3ccc(S(=O)(=O)n4ccc(/C=C/C(=O)Nc5ccccc5N)c4)cc23)c1 | 41 | 16 | 17 | 3.45 | 24 | > 32 | 1.3 | 4.24 | 0.091 | 0.84 | 3.7 | 27 | 5.7 | > 32 | 27 | 7.2 | 3.7 | 2.5 | 2.9 | 50 | Imax (Histone deacetylase 3 [1]): 75%; IC50 [15]: 15 µM
11 | C#Cc1cccc(Nc2ncnc3cc(OCCOC)c(OCCOC)cc23)c1 [ERLOTINIB] | – | – | – | 8.3 | > 100 | > 32 | – | > 15.8 | > 32 | > 32 | 2.5 | 15 | 31 | > 32 | – | > 32 | > 50 | 0.074 | – | – | –
